The results in this text go back to ChEMBL document CHEMBL5729768, “Azalactam compounds as HPK1 inhibitors” (2023).

Assay [1] concerns the target T1, Serine/threonine-protein kinase D2 (Homo sapiens, UniProt Q9BZL6).
T1 sequence (Q9BZL6 whole entry): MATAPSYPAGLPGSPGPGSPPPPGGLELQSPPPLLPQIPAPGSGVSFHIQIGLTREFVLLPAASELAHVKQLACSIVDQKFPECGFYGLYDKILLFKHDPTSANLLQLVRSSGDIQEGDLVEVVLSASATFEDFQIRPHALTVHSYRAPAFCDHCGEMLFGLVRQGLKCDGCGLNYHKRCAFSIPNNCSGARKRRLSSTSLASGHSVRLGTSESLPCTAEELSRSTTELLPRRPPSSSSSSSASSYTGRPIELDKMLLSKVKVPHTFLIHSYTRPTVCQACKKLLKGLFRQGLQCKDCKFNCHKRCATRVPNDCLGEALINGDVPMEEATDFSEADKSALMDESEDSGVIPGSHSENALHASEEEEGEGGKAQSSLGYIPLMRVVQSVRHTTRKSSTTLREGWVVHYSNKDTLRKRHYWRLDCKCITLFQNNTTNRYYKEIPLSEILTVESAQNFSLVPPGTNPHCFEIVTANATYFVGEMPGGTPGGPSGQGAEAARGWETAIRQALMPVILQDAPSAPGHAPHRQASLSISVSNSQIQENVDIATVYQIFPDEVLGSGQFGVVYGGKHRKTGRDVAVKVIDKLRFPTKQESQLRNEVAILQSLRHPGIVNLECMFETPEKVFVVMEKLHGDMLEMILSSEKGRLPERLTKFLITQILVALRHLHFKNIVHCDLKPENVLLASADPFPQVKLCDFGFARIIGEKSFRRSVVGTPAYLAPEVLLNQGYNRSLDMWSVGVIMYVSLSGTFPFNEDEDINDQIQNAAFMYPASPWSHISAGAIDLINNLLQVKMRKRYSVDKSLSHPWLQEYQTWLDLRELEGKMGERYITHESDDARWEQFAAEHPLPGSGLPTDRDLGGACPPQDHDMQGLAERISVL

Assay [2] deals with Ribosomal protein S6 kinase alpha-2 (Homo sapiens, UniProt Q15349).
Sequence of Ribosomal protein S6 kinase alpha-2 (Q15349 whole entry): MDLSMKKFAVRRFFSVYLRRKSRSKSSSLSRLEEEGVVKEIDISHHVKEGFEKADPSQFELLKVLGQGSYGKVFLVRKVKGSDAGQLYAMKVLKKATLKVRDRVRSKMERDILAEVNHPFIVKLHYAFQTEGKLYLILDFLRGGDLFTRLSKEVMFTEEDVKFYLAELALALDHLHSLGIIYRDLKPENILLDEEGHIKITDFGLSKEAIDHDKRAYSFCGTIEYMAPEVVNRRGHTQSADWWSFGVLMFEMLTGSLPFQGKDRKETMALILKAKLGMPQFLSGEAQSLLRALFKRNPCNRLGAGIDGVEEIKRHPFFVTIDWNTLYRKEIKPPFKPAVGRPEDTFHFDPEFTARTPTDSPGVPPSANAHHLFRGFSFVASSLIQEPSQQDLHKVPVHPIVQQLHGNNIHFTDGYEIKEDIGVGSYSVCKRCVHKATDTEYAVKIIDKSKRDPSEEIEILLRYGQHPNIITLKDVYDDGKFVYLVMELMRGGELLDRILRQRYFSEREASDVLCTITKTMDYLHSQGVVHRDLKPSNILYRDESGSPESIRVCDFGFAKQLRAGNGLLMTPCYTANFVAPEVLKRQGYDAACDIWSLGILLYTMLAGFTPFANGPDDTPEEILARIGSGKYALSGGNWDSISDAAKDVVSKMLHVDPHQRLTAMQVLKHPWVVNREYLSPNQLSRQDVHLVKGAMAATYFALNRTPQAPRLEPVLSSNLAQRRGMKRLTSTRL

Structures are written as SMILES.

`CC[C@@H](N)c1nc(N(C)C(C)C)cc2c1CN(c1cccc(-c3nnc4n3[C@@H](C)CC4)n1)C2=O`: the IC50 in assay [1] was found to be 0.251 µM; in assay [2] it was 0.0535 µM.

Turning to `COC[C@@H](N)c1nc(C2(C)CC2)cc2c1CN(c1cccc(-c3nnc4n3[C@@H](C)CC4)n1)C2=O`, the IC50 was found to be 0.942 µM in assay [1] and 0.0486 µM in assay [2].

What is called IC50 is the midpoint of a concentration-inhibition curve.
